Here are results for 47 compounds from publication PMC5449446, “Metabolic Value Chemoattractants Are Preferentially Recognized at Broad Ligand Range Chemoreceptor of Pseudomonas putida KT2440” (Frontiers in Microbiology, 2017).

By Kd is commonly meant the concentration at which binding is half-saturated.

Assay [1] deals with T1, PcaY_PP-LBD (Pseudomonas putida, UniProt Q88JK6).
T1 construct: His-tag (from the pET28b vector; inferred from NdeI/BamHI cloning and HisTrap purification) (N); made in house; host or cells: Escherichia coli BL21 (DE3)
T1 sequence (Q88JK6 44-196): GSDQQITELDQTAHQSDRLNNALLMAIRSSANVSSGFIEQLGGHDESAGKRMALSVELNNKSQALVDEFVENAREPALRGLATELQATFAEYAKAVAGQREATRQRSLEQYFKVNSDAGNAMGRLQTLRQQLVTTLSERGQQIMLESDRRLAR
The assay is described as follows: biochemical. In kind it is binding, Pseudomonas putida KT2440. To be noted: for KD: ITC at 25°C, 25 μM protein, One Binding Site model, means and SD of three experiments. Here is the method:
Experiments were carried out at 25°C using a VP-ITC titration calorimeter (Microcal Inc., Northampton, Massachusetts). […] Obtained data were corrected with the heat changes measured for the injection of ligand into buffer. Data were normalized with the protein concentration (Bradford assay) and fitted with the “One Binding Site” model of the MicroCal version of the ORIGIN 7.0 software (OriginLab Corporation, Northampton, MA, United States), leaving all parameters floating.

In assay [2] the test system is Pseudomonas putida KT2440. Put plainly: Quantitative capillary chemotaxis assay. In kind it is cell-based. To be noted: 30 min, wild type KT2440. On the procedure:
Subsequently, the cells were re-suspended in the same buffer, adjusted to an OD660 of 0.15 and 230 μl aliquots of this bacterial culture were placed into 96-well plates. For the quantitative assays, one-microliter capillary tubes (Microcaps, Drummond Scientific, Ref. […]) were heat-sealed at one end and filled with either the chemotaxis buffer (negative control) or chemotaxis buffer containing the chemoeffector. The capillaries were immersed into the bacterial suspension and incubated for 30 min at room temperature. Capillaries were subsequently removed from the bacterial suspension, rinsed with sterile water and the content expelled into 1 ml of M9 medium. Serial dilutions were plated onto LB medium (containing the appropriate antibiotics) and the number of colony forming units was determined. In all cases, data were corrected with the number of cells that swam into buffer containing capillaries.

In assay [3] the test system is P. putida KT2440. The assay is described as follows: Growth in M9 minimal medium with ligand as sole C-source. In kind it is cell-based, Pseudomonas putida KT2440. To be noted: 10 mM (2 mM for poorly soluble) ligand. Here is the method: P. putida KT2440R was grown in the same medium supplemented with rifampicin (10 μg ml^-1). […] When necessary, the pH of the medium was adjusted to 7.0 prior to inoculation. Bacterial growth rates were monitored by measuring the OD660 until cultures reached the stationary phase. The growth rate during the exponential growth (m) was calculated according to m = (LnOD2-LnOD1).(t2-t1)^-1, where OD2/t2 and OD1/t1 correspond to the OD660/time at the end and the beginning of the time interval. The generation time (G) was defined by G = Ln2 μ^-1. […] Normalized growth yield per carbon source after 24 h was determined applying correlation factors between cell dry weight and OD660 determined in batch cultures and assuming that all the carbon source was consumed during growth. Data were fitted by linear least squares regression or submitted to the chi-squared test with Yates correction using in both cases the Graph Pad Prism v7.02 software.

Assay [4] concerns the target McpH. Details: method as in ref (2) (a number printed in a supplementary file, which may have a reference list of its own: not looked up in the article's list). Conditions: ITC, purified recombinant LBD; ref (2); cited from earlier work.
Assay [5] has as its target McpU. Details: method as in ref (3) (a number printed in a supplementary file, which may have a reference list of its own: not looked up in the article's list). To be noted: ITC, purified recombinant LBD; ref (3); cited from earlier work. (ITC needs no label: the signal is the heat of the interaction.)
For assay [6], the target named is McpA. Details: method as in ref (3) (a number printed in a supplementary file, which may have a reference list of its own: not looked up in the article's list). Conditions: ITC, purified recombinant LBD; ref (3); cited from earlier work.
Assay [7] deals with McpP. Details: method as in ref (6) (a number printed in a supplementary file, which may have a reference list of its own: not looked up in the article's list). Conditions: ITC, purified recombinant LBD; ref (6); cited from earlier work.

The compound `Nc1ccccc1C(=O)O` [2-ABA, 2-Aminobenzoate] displayed a Kd in assay [1] of 89 µM. In addition, in assay [1] (ITC), the “∆G” value was -5.52 ± 0.07 kcal/mol and the “∆H” value is given as -18.0 ± 1.8 kcal/mol.

As to `O=C(O)c1ccccc1Cl` [2-CBA, 2-chlorobenzoate], in assay [1], the KD entry is on record as “No binding”. Moreover, in assay [2], the chemotactic response result was “did not induce a chemotactic response”.

In the case of `O=C(O)c1ccccc1O` [2-HBA, 2-hydroxybenzoate], in assay [1], the Kd turned out to be 24 µM. Further, in assay [1] (ITC), the “∆G” value was -6.30 ± 0.03 kcal/mol and the “∆H” value is recorded as -21.0 ± 0.6 kcal/mol. Besides, the chemotactic response result in assay [2] was “much weaker”.

For the compound `Cc1ccccc1C(=O)O` [2-MBA], the KD result in assay [1] was “No binding”.

Consider `O=C(O)c1ccccc1[N+](=O)[O-]` [2-NBA], for which, in assay [1], the KD result is recorded as “No binding”.

The compound `Nc1cccc(C(=O)O)c1` [3-ABA, 3-aminobenzoate] gave a dissociation constant (Kd) in assay [1] of 138 µM. For the same compound, in assay [1] (ITC), the “∆G” value was -5.26 ± 0.07 kcal/mol and the “∆H” value is reported as -16.4 ± 1.2 kcal/mol.

Consider `O=C(O)c1cccc(Cl)c1` [3-CBA, 3-chlorobenzoate], for which the equilibrium dissociation constant (Kd) in assay [1] was determined as 34 µM. In addition, in assay [1] (ITC), the “∆G” value was -6.09 ± 0.03 kcal/mol and the “∆H” value is -13.2 ± 0.3 kcal/mol.

For the compound `O=C(O)C1=CC(=O)C(O)C(O)C1` (stereo not shown) [3-Dehydroshikimate, 3-dehydroshikimate], the Kd in assay [1] was found to be 6 µM. Besides, in assay [1] (ITC), the “∆G” value is reported as -7.11 ± 0.03 kcal/mol and the “∆H” value was -19.9 ± 0.3 kcal/mol. In addition, the “capacity to support growth as sole carbon source” value (from here on “capacity to support growth”) in assay [3] is on record as “supported bacterial growth”.

As for `O=C(O)c1cccc(O)c1` [3-HBA, 3-hydroxybenzoate], the KD entry in assay [1] was “No Binding”.

In the case of `Cc1cccc(C(=O)O)c1` [3-MBA, 3-Methylbenzoate], the Kd in assay [1] was determined as 32 µM. In assay [1] (ITC), the “∆G” value is recorded as -6.12 ± 0.04 kcal/mol and the “∆H” value is reported as -21.9 ± 1.1 kcal/mol.

Take `O=C(O)c1cccc([N+](=O)[O-])c1` [3-NBA, 3-Nitrobenzoate]: the Kd in assay [1] turned out to be 61 µM. For the same compound, in assay [1] (ITC), the “∆G” value is recorded as -5.74 ± 0.06 kcal/mol and the “∆H” value is reported as -17.5 ± 0.3 kcal/mol.

In the case of `Nc1ccc(C(=O)O)cc1` [4-ABA, 4-aminobenzoate], the dissociation constant Kd in assay [1] amounted to 98 µM. Further, in assay [1] (ITC), the “∆G” value is on record as -5.46 ± 0.12 kcal/mol and the “∆H” value was -11.0 ± 0.4 kcal/mol. In addition, in assay [2], the chemotactic response result is recorded as “much weaker”.

Turning to `O=C(O)c1ccc(O)cc1` [4-HBA, 4-hydroxybenzoate], the Kd in assay [1] came to 7.2 µM. For the same compound, in assay [1] (ITC), the “increase in affinity as compared to benzoate” value is listed as “around 12 fold”, the “∆G” value is given as -7.01 ± 0.08 kcal/mol and the “∆H” value was -33.2 ± 1.4 kcal/mol. Moreover, the “capacity to support growth” value in assay [3] is recorded as “supported bacterial growth”.

As for `O=Cc1ccc(O)cc1` [4-Hbenzaldehyde, 4-hydroxybenzaldehyde], the figures for the KD entry in assay [1] and in assay [1] (listed as 4-hydroxybenzaldehyde) were “No Binding” and “devoid of binding”, respectively.

Regarding `Cc1ccc(C(=O)O)cc1` [4-MBA, 4-Methylbenzoate], the dissociation constant (Kd) in assay [1] came out at 41 µM. Besides, in assay [1] (ITC), the “∆G” value was -5.97 ± 0.12 kcal/mol and the “∆H” value was -13.2 ± 0.9 kcal/mol.

The compound `O=C(O)c1ccc([N+](=O)[O-])cc1` [4-NBA, 4-Nitrobenzoate] showed a Kd in assay [1] of 50 µM. Also, in assay [1] (ITC), the “∆G” value is -5.86 ± 0.06 kcal/mol and the “∆H” value is on record as -13.8 ± 1.2 kcal/mol.

For the compound `Nc1ncnc2[nH]cnc12` [Adenine], the Kd in assay [4] is 2.4 µM.

As to `O=C(O)CCCCC(=O)O` [Adipate, adipate], the figures for the KD entry in assay [1] and in assay [1] (listed as adipate) were “No binding” and “No binding heats”, respectively.

In turn, `O=C(O)c1ccccc1` [Benzoate, benzoate] returned a Kd in assay [1] of 90 ± 8 µM. Also, in assay [1] (ITC), the “∆G” value is given as -5.51 ± 0.06 kcal/mol and the “∆H” value is listed as -13.3 ± 0.5 kcal/mol. Besides, the chemotactic response entry in assay [2] is listed as “much weaker”. In assay [3], the “capacity to support growth” value is listed as “supported bacterial growth”.

Turning to `NCCCCCN` [Cadaverine], the dissociation constant (Kd) in assay [5] was 22 µM.

In the case of `NCC(=O)O` [Gly], the Kd in assay [6] was 35 µM.

On to `Nc1nc2nc[nH]c2c(=O)[nH]1` [Guanine], for which the Kd in assay [4] is 4.3 µM.

In the case of `O=c1[nH]cnc2nc[nH]c12` [Hypoxanthine], the dissociation constant (Kd) in assay [4] is 3.3 µM.

For `C[C@H](N)C(=O)O` [L-Ala], the Kd in assay [6] is 13 µM.

As for `N=C(N)NCCC[C@H](N)C(=O)O` [L-Arg], the dissociation constant (Kd) in assay [6] is 1.2 µM.

Consider `NC(=O)C[C@H](N)C(=O)O` [L-Asn], for which the Kd in assay [6] was 4.3 µM.

In the case of `N[C@@H](CS)C(=O)O` [L-Cys], the dissociation constant Kd in assay [6] was 0.6 µM.

With `NC(=O)CC[C@H](N)C(=O)O` [L-Gln], in assay [6], the Kd was 5.5 µM.

In the case of `CC[C@H](C)[C@H](N)C(=O)O` [L-Ile], in assay [6], the dissociation constant Kd was 85 µM.

As to `CSCC[C@H](N)C(=O)O` [L-Met], the dissociation constant (Kd) in assay [6] was 5.8 µM.

With `N[C@@H](Cc1ccccc1)C(=O)O` [L-Phe], the Kd in assay [6] is 2.3 µM.

On to `N[C@@H](CO)C(=O)O` [L-Ser], for which the Kd in assay [6] was 43 µM.

`N[C@@H](Cc1ccc(O)cc1)C(=O)O` [L-Tyr]: in assay [6], the dissociation constant Kd is 12.1 µM.

As to `CC(C)[C@H](N)C(=O)O` [L-Val], the dissociation constant (Kd) in assay [6] is 373 µM.

With `C[C@H](O)C(=O)O` [L-lactate], the Kd in assay [7] is 107 µM.

In the case of `O=C(O)CC(O)C(=O)O` (stereo not shown) [Malate, malate], the KD entry in assay [1] is reported as “did not show any binding”.

In the case of `CCC(=O)O` [Propionate], the Kd in assay [7] was 34 µM.

For the compound `O=C(O)c1ccc(O)c(O)c1` [Protocatechuate, protocatechuate], binding in assay [1] was characterised by a dissociation constant (Kd) of 6.4 µM. In assay [1] (ITC), the “∆G” value is given as -7.08 ± 0.04 kcal/mol and the “∆H” value is -22.9 ± 1.2 kcal/mol. Further, in assay [2], the chemotactic response entry was “much weaker”. Moreover, the “capacity to support growth” value in assay [3] was “supported bacterial growth”.

Take `c1ncc2nc[nH]c2n1` [Purine]: the Kd in assay [4] is 2.4 µM.

As for `NCCCCN` [Putrescine], the dissociation constant Kd in assay [5] is 2 µM.

Regarding `CC(=O)C(=O)O` [Pyruvate], the dissociation constant (Kd) in assay [7] was 39 µM.

On to `NCCCCNCCCN` [Spermidine], for which the equilibrium dissociation constant (Kd) in assay [5] is 4.5 µM.

`O=C(O)CCC(=O)O` [Succinate, succinate]: the KD entry in assay [1] is on record as “did not show any binding”.

Regarding `O=c1[nH]c(=O)c2[nH]c(=O)[nH]c2[nH]1` [Uric acid], the Kd in assay [4] was 1.3 µM.

`COc1cc(C(=O)O)ccc1O` [Vanillate, vanillate] returned a Kd in assay [1] of 11 µM. In addition, in assay [1] (ITC), the “∆G” value is recorded as -6.70 ± 0.03 kcal/mol and the “∆H” value is recorded as -12.8 ± 1.7 kcal/mol.

Turning to `COc1cc(C=O)ccc1O` [Vanillin, vanillin], the values for the KD entry in assay [1] and in assay [1] (listed as vanillin) were “No binding” and “absence of binding”, respectively.

On to `O=c1[nH]c(=O)c2nc[nH]c2[nH]1` [Xanthine], for which the dissociation constant Kd in assay [4] was 2.7 µM.
